{"source": "patent US20140045826A1", "about": "“METHODS AND COMPOSITIONS FOR TREATING NEURODEGENERATIVE DISEASES” (ARIAD PHARMACEUTICALS, INC., priority 2011, published 2014)", "key": {"[1]": {"conditions": "mice and humans; cited from earlier work"}, "AXL": {"molecular_target": "T1, AXL (Homo sapiens, UniProt P30530)", "T1 sequence (P30530 26-894)": "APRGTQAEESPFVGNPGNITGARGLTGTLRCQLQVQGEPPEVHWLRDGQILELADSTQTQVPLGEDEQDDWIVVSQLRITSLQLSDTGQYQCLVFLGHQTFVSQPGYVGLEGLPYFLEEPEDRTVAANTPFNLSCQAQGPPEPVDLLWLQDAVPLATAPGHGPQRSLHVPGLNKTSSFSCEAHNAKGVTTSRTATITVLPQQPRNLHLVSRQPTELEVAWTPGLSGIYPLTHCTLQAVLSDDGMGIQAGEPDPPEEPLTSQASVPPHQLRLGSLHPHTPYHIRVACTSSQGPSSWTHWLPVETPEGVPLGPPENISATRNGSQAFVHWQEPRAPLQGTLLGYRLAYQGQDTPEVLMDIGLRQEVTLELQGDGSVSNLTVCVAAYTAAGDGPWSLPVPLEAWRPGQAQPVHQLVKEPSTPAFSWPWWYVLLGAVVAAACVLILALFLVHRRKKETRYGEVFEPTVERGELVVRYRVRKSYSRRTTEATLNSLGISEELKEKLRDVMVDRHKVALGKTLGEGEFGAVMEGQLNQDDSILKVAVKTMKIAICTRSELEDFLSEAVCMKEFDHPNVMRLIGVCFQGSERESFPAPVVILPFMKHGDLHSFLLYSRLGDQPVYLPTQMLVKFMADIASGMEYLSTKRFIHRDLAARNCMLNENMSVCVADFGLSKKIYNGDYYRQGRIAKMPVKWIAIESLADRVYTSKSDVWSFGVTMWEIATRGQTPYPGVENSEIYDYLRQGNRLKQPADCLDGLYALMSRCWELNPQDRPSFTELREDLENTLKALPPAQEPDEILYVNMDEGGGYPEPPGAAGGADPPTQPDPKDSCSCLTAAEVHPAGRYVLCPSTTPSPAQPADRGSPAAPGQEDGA", "assay": "in vitro kinase assay", "type": "biochemical"}, "Aurora C": {"molecular_target": "T2, Aurora C (Homo sapiens, UniProt Q9UQB9)", "T2 sequence (Q9UQB9 1-309)": "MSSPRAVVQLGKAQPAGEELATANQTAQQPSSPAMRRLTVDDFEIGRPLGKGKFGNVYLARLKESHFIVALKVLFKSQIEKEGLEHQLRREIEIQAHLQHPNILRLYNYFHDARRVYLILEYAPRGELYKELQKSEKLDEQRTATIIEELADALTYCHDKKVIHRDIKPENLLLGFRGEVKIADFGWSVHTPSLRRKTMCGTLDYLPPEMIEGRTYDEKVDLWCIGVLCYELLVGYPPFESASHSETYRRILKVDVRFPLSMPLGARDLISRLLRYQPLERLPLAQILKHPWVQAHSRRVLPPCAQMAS", "assay": "in vitro kinase assay", "type": "biochemical"}, "ITK": {"molecular_target": "T3, ITK (Homo sapiens, UniProt Q08881)", "T3 sequence (Q08881 1-620)": "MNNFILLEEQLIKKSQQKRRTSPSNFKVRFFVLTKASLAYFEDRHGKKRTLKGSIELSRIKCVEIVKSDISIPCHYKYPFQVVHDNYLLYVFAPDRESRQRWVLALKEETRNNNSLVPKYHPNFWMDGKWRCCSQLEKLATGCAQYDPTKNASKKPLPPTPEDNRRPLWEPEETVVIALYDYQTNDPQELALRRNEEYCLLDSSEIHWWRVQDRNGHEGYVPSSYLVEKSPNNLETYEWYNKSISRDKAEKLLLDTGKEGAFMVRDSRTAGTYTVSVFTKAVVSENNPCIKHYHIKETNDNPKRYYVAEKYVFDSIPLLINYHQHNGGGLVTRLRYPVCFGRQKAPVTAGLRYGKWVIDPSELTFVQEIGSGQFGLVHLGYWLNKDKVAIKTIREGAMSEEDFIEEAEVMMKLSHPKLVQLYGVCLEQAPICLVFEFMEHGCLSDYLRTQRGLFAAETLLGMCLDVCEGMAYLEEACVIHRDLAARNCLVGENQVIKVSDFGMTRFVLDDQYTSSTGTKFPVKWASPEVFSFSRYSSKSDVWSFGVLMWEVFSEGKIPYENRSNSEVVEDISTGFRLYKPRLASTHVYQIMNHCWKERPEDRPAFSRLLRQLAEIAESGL", "assay": "in vitro kinase assay", "type": "biochemical"}, "PKC8": {"molecular_target": "PKC8", "assay": "in vitro kinase assay", "type": "biochemical"}, "in vivo": {"assay": "in vivo", "conditions": "rat, plasma, po, 5 mg/kg"}, "ZAP70": {"molecular_target": "T4, ZAP70 (Homo sapiens, UniProt P43403)", "T4 sequence (P43403 1-619)": "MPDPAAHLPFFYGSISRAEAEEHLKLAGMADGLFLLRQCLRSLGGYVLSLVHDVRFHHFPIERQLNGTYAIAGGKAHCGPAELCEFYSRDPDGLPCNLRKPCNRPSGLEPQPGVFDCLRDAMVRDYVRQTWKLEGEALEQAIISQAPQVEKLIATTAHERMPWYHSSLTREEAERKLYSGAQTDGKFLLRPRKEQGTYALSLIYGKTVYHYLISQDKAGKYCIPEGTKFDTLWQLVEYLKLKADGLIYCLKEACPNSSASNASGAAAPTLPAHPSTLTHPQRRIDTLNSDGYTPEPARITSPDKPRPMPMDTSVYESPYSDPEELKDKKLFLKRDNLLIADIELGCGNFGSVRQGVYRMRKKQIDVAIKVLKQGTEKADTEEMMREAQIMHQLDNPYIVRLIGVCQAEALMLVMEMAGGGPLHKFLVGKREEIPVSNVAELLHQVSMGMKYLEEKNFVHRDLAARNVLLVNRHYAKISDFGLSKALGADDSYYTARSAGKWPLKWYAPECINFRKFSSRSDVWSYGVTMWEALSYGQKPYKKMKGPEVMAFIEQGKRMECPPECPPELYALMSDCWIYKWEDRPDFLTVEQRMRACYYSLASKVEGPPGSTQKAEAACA", "assay": "in vitro kinase assay", "type": "biochemical"}, "PGP efflux pump": {"molecular_target": "PGP efflux pump (Homo sapiens, UniProt P08183)", "assay": "substrate for the PGP efflux pump"}, "TYK1": {"molecular_target": "TYK1 (Homo sapiens, UniProt P29376)", "sequence (P29376 17-864, species assumed)": "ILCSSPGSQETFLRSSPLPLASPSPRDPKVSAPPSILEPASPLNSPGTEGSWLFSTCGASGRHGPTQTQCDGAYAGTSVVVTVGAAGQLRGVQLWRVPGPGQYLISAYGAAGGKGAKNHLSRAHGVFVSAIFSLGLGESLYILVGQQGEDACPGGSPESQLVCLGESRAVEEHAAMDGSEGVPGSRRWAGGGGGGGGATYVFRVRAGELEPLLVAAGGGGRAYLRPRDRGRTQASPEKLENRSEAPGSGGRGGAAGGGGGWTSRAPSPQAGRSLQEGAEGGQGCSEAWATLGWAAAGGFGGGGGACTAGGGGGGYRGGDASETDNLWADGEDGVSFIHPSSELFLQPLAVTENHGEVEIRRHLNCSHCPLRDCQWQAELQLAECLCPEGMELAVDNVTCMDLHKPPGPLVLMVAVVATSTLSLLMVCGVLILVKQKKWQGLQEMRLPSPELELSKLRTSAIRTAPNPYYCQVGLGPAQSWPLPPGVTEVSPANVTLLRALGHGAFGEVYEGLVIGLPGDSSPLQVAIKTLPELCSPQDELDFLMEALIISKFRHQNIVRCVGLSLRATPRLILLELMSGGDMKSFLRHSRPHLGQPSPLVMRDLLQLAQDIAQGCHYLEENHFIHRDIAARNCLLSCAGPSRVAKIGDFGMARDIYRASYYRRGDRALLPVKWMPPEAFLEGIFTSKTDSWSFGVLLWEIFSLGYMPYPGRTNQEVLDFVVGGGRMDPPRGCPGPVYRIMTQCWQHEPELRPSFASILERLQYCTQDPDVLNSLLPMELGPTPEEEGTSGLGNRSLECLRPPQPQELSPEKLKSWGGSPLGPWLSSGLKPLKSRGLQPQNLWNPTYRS", "assay": "in vitro kinase assay", "type": "biochemical"}, "CTK": {"molecular_target": "T5, CTK (Homo sapiens, UniProt P42679)", "T5 sequence (P42679 1-507)": "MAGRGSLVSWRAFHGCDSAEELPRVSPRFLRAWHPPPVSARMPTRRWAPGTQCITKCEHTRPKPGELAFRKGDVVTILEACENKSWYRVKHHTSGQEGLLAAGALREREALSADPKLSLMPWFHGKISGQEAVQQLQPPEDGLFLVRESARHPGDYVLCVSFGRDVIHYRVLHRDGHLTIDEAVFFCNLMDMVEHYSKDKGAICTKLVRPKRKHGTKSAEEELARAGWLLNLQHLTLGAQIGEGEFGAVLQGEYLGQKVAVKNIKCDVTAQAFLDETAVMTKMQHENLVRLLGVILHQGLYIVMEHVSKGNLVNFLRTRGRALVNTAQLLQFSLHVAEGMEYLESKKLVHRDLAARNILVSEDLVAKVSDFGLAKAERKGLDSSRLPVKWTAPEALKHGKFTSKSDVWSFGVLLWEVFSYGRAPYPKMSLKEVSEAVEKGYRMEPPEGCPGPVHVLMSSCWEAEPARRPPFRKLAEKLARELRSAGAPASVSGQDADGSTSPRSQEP", "assay": "in vitro kinase assay", "type": "biochemical"}, "mTOR": {"molecular_target": "mTOR (Homo sapiens, UniProt P42345)", "assay": "in vitro kinase assay", "type": "biochemical"}, "ROS": {"molecular_target": "ROS (Homo sapiens, UniProt P08922)", "sequence (P08922 28-2347)": "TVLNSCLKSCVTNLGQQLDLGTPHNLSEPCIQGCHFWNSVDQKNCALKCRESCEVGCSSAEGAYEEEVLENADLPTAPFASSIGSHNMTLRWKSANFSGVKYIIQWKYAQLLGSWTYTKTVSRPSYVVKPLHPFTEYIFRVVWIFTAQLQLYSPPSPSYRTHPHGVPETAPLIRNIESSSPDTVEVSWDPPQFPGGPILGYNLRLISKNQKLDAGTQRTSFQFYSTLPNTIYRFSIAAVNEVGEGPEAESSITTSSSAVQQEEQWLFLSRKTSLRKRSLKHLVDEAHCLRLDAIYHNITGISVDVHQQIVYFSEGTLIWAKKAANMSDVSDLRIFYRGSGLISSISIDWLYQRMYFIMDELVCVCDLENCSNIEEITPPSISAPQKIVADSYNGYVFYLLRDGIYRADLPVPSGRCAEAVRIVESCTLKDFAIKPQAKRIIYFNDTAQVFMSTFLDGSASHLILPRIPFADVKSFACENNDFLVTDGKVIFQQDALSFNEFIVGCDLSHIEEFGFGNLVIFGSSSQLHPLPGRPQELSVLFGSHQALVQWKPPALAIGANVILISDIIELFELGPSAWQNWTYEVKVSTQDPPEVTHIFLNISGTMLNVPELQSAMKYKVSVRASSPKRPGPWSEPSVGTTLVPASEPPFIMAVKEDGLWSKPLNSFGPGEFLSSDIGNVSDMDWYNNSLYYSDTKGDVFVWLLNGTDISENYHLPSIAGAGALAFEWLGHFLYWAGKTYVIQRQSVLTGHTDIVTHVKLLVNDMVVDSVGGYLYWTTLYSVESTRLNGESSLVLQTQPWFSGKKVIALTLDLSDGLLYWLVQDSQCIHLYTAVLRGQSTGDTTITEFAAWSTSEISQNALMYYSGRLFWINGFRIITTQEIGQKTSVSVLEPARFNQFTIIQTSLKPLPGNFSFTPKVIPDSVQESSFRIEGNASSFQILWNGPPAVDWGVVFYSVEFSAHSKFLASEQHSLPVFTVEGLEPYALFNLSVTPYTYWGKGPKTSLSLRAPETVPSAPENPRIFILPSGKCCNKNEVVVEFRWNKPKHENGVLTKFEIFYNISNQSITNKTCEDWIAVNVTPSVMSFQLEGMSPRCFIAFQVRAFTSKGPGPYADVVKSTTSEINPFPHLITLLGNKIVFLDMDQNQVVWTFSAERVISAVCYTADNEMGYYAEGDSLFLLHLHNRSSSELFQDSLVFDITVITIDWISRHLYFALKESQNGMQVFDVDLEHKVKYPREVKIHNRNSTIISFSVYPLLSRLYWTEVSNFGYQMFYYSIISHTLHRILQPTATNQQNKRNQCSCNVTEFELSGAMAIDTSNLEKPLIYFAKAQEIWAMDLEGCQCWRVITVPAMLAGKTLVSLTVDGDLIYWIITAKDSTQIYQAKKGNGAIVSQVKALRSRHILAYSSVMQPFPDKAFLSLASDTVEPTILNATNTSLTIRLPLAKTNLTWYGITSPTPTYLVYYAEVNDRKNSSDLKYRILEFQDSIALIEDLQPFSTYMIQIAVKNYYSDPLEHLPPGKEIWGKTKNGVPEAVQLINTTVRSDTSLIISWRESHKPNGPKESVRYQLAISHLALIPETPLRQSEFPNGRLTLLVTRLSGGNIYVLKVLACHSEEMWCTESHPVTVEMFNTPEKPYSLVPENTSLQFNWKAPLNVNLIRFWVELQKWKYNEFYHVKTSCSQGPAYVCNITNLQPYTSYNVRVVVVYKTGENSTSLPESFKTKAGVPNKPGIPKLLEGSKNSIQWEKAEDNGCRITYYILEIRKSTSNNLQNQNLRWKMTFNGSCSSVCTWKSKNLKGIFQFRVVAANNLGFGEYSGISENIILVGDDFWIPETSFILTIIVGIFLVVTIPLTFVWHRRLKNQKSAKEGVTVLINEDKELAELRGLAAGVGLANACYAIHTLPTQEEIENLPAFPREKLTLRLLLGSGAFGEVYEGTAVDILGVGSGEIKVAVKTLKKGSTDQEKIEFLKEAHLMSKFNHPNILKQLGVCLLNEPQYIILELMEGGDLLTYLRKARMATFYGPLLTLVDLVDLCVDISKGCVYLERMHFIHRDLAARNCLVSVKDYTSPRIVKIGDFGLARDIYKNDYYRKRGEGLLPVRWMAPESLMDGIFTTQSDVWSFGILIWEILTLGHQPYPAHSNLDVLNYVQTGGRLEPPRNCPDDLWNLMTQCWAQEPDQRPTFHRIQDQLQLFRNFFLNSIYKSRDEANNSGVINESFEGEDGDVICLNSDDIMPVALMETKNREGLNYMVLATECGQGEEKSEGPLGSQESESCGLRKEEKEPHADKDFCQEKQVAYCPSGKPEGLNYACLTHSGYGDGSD", "assay": "in vitro kinase assay", "type": "biochemical"}, "[2]": {"assay": "phase 1 clinical trial, safety and tolerability"}, "IRR": {"molecular_target": "IRR (Homo sapiens, UniProt P14616)", "assay": "in vitro kinase assay", "type": "biochemical"}, "ALK": {"molecular_target": "ALK (Homo sapiens, UniProt Q9UM73)", "sequence (Q9UM73 19-1620)": "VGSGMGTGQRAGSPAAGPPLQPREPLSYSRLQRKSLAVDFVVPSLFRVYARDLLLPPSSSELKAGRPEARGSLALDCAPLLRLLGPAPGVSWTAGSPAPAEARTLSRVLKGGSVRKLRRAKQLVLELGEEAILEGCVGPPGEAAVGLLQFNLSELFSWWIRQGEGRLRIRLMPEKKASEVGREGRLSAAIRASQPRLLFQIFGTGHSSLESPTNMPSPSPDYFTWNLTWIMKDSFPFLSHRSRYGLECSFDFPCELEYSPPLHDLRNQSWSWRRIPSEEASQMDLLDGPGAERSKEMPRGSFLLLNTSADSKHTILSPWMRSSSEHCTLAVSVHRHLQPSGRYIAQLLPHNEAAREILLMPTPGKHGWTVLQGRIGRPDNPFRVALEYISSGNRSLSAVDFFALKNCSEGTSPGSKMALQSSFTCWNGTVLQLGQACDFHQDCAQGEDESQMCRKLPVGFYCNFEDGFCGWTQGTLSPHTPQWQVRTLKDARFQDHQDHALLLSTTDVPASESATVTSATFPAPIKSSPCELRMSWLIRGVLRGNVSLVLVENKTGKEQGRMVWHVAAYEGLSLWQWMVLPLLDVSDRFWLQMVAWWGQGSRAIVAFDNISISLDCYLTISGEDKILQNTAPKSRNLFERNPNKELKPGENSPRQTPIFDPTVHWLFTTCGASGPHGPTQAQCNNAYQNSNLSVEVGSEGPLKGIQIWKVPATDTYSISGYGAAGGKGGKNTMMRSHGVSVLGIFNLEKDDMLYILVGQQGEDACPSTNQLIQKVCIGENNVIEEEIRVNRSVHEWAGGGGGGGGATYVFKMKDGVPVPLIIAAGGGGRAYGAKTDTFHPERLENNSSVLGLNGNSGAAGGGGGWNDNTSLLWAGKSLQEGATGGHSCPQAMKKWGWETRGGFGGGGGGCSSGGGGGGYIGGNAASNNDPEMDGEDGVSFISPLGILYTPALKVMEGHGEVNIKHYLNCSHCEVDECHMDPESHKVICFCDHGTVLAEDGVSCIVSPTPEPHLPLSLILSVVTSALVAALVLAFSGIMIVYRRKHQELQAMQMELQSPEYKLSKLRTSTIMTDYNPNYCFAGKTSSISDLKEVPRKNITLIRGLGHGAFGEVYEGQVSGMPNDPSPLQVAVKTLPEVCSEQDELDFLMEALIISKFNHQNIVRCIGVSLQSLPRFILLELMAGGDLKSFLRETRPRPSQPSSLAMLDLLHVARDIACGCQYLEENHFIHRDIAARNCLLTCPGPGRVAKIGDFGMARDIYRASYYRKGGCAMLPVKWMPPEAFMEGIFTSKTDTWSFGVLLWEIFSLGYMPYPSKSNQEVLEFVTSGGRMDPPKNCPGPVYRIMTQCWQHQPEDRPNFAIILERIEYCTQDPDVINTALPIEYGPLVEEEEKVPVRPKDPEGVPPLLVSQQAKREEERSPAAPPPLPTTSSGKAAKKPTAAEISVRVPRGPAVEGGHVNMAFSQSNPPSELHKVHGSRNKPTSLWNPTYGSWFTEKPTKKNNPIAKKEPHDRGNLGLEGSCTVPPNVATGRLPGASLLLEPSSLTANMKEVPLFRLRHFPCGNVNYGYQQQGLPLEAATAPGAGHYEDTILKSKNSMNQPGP", "assay": "in vitro kinase assay", "type": "biochemical"}}, "data": [{"smiles": "Cc1ccc(NC(=O)c2ccc(CN3CCN(C)CC3)cc2)cc1Nc1nccc(-c2cccnc2)n1", "note": "[STI-571]", "values": [{"measurement": "penetration of the blood-brain barrier", "setting": "[1]", "result": "poor penetration of the blood-brain barrier"}]}, {"smiles": "Cc1ccc(C(=O)Nc2ccc(CN3CCN(C)CC3)c(C(F)(F)F)c2)cc1C#Cc1cnc2cccnn12", "note": "[ponatinib, 3-(Imidazo[1,2-b]pyridazin-3-ylethynyl)-4-methyl-N-(4-((4-methylpiperazin-1-yl)methyl)-3-(trifluoromethyl)phenyl)benzamide]", "values": [{"measurement": "IC50", "setting": "AXL", "result": "> 1000", "unit": "nM"}, {"measurement": "IC50", "setting": "Aurora C", "result": "> 1000", "unit": "nM"}, {"measurement": "IC50", "setting": "ITK", "result": "> 1000", "unit": "nM"}, {"measurement": "IC50", "setting": "PKC8", "result": "> 1000", "unit": "nM"}, {"measurement": "Cmax", "setting": "in vivo", "result": 175, "unit": "ng/mL"}, {"measurement": "IC50", "setting": "ZAP70", "result": "> 1000", "unit": "nM"}, {"measurement": "substrate for the PGP efflux pump", "setting": "PGP efflux pump", "result": "poor substrate"}, {"measurement": "IC50", "setting": "TYK1", "result": "> 1000", "unit": "nM"}, {"measurement": "IC50", "setting": "CTK", "result": "> 1000", "unit": "nM"}, {"measurement": "IC50", "setting": "mTOR", "result": "> 1000", "unit": "nM"}, {"measurement": "IC50", "setting": "ROS", "result": "> 1000", "unit": "nM"}, {"measurement": "dose limiting toxicities (DLTs)", "setting": "[2]; 45 mg cohort", "result": "a reversible rash was seen with one patient"}, {"measurement": "dose limiting toxicities (DLTs)", "setting": "[2]; 60 mg cohort", "result": "four patients developed reversible pancreatic related DLT (pancreatitis)"}, {"measurement": "dose limiting toxicities (DLTs)", "setting": "[2]; 2 to 30 mg cohorts", "result": "no dose limiting toxicities (DLTs) were observed"}, {"measurement": "maximum tolerated dose (MTD)", "setting": "[2]; patients with refractory hematological cancers, oral, dose escalation 2-60 mg", "result": 45, "unit": "mg"}, {"measurement": "drug-related adverse events of any grade: anemia", "setting": "[2]; phase 1 patients", "result": 12, "unit": "%"}, {"measurement": "drug-related adverse events of any grade: lipase increase", "setting": "[2]; phase 1 patients", "result": 12, "unit": "%"}, {"measurement": "drug-related adverse events of any grade: nausea", "setting": "[2]; phase 1 patients", "result": 12, "unit": "%"}, {"measurement": "drug-related adverse events of any grade: rash", "setting": "[2]; phase 1 patients", "result": 12, "unit": "%"}, {"measurement": "drug-related adverse events of any grade: thrombocytopenia", "setting": "[2]; phase 1 patients", "result": 25, "unit": "%"}, {"measurement": "tolerability", "setting": "[2]; phase 1 study conclusion", "result": "well tolerated"}, {"measurement": "IC50", "setting": "IRR", "result": "> 1000", "unit": "nM"}, {"measurement": "IC50", "setting": "ALK", "result": "> 1000", "unit": "nM"}]}]}
